Experimental data published in PubChem BioAssay AID2060505 (Molecular Pharmacology Branch, DTP, NCI, 2025).

Test system: 633275-114-R-J1-PDC complex spheroids, viability
Assay: Anticancer human tumor 633275-114-R-J1-PDC patient-derived endometrial adenocarcinoma cell line growth inhibition [GQUAD]
Details: for IC50: curve of first compound; for viability, T/C: stronger effect = lower value
Summary of the method: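 Multi-cell-type spheroids of tumor cells with HUVEC and mesenchymal stem cells, treated with drug combinations. Concentrations descend in half-log steps from near clinical Cmax, or from 10 microM where Cmax is unknown; viability read-out.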

[1] = second compound 0.0316 µM, first compound 0.0316 µM
[2] = second compound 0.0316 µM, first compound 0.1 µM
[3] = second compound 0.0316 µM, first compound 0.316 µM
[4] = second compound 0.0316 µM, first compound 1 µM
[5] = second compound 0.0316 µM, first compound 3.16 µM
[6] = second compound 0.0316 µM, first compound 10 µM
[7] = second compound 0.1 µM, first compound 0.0316 µM
[8] = second compound 0.1 µM, first compound 0.1 µM
[9] = second compound 0.1 µM, first compound 0.316 µM
[10] = second compound 0.1 µM, first compound 1 µM
[11] = second compound 0.1 µM, first compound 3.16 µM
[12] = second compound 0.1 µM, first compound 10 µM
[13] = second compound 0.316 µM, first compound 0.0316 µM
[14] = second compound 0.316 µM, first compound 0.1 µM
[15] = second compound 0.316 µM, first compound 0.316 µM
[16] = second compound 0.316 µM, first compound 1 µM
[17] = second compound 0.316 µM, first compound 3.16 µM
[18] = second compound 0.316 µM, first compound 10 µM
[19] = second compound 1 µM, first compound 0.0316 µM
[20] = second compound 1 µM, first compound 0.1 µM
[21] = second compound 1 µM, first compound 0.316 µM
[22] = second compound 1 µM, first compound 1 µM
[23] = second compound 1 µM, first compound 3.16 µM
[24] = second compound 1 µM, first compound 10 µM
[25] = second compound 3.16 µM, first compound 0.0316 µM
[26] = second compound 3.16 µM, first compound 0.1 µM
[27] = second compound 3.16 µM, first compound 0.316 µM
[28] = second compound 3.16 µM, first compound 1 µM
[29] = second compound 3.16 µM, first compound 3.16 µM
[30] = second compound 3.16 µM, first compound 10 µM
[31] = second compound 10 µM, first compound 0.0316 µM
[32] = second compound 10 µM, first compound 0.1 µM
[33] = second compound 10 µM, first compound 0.316 µM
[34] = second compound 10 µM, first compound 1 µM
[35] = second compound 10 µM, first compound 3.16 µM
[36] = second compound 10 µM, first compound 10 µM
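Also: spheroids exposed to the agents for seven days.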
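For viability, T/C in this document: percent of DMSO vehicle control viability which is 100%.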

C=CC(=O)N1CCN(c2nc(=O)n(-c3c(C)ccnc3C(C)C)c3nc(-c4c(O)cccc4F)c(F)cc23)C(C)C1 (stereo unspecified) + Cc1[nH]c2ccc(F)cc2c1-c1nc2c3cccnc3c3ncccc3c2[nH]1
IC50 (second compound 0.0316 µM): > 10 µM
IC50 (second compound 0.1 µM): > 10 µM
IC50 (second compound 0.316 µM): > 10 µM
IC50 (second compound 1 µM): > 10 µM
IC50 (second compound 3.16 µM): > 10 µM
IC50 (second compound 10 µM): > 10 µM
viability, T/C [1]: 95.3%
viability, T/C [2]: 100%
viability, T/C [3]: 93.9%
viability, T/C [4]: 104%
viability, T/C [5]: 104%
viability, T/C [6]: 77.9%
viability, T/C [7]: 106%
viability, T/C [8]: 105%
viability, T/C [9]: 102%
viability, T/C [10]: 100%
viability, T/C [11]: 105%
viability, T/C [12]: 88.9%
viability, T/C [13]: 97.3%
viability, T/C [14]: 98.1%
viability, T/C [15]: 103%
viability, T/C [16]: 97.6%
viability, T/C [17]: 105%
viability, T/C [18]: 83.3%
viability, T/C [19]: 91.5%
viability, T/C [20]: 92.4%
viability, T/C [21]: 94.7%
viability, T/C [22]: 98.1%
viability, T/C [23]: 90.1%
viability, T/C [24]: 77.9%
viability, T/C [25]: 72.5%
viability, T/C [26]: 74.9%
viability, T/C [27]: 75.8%
viability, T/C [28]: 76.3%
viability, T/C [29]: 74.2%
viability, T/C [30]: 62.6%
viability, T/C [31]: 67%
viability, T/C [32]: 71.8%
viability, T/C [33]: 68.2%
viability, T/C [34]: 78.7%
viability, T/C [35]: 71.6%
viability, T/C [36]: 59%

CC(C)n1c(=O)n(C)c2cnc3cc(F)c(-c4ccc(OCCCN5CCCCC5)nc4)cc3c21 + Cc1[nH]c2ccc(F)cc2c1-c1nc2c3cccnc3c3ncccc3c2[nH]1
IC50 (second compound 0.0316 µM): > 10 µM
IC50 (second compound 0.1 µM): > 10 µM
IC50 (second compound 0.316 µM): > 10 µM
IC50 (second compound 1 µM): > 10 µM
IC50 (second compound 3.16 µM): > 10 µM
IC50 (second compound 10 µM): > 10 µM
viability, T/C [1]: 109%
viability, T/C [2]: 105%
viability, T/C [3]: 109%
viability, T/C [4]: 100%
viability, T/C [5]: 95.3%
viability, T/C [6]: 68.3%
viability, T/C [7]: 109%
viability, T/C [8]: 105%
viability, T/C [9]: 108%
viability, T/C [10]: 101%
viability, T/C [11]: 97.8%
viability, T/C [12]: 70.5%
viability, T/C [13]: 106%
viability, T/C [14]: 105%
viability, T/C [15]: 99.8%
viability, T/C [16]: 99.2%
viability, T/C [17]: 99.9%
viability, T/C [18]: 71.2%
viability, T/C [19]: 106%
viability, T/C [20]: 98.2%
viability, T/C [21]: 103%
viability, T/C [22]: 90.9%
viability, T/C [23]: 98.7%
viability, T/C [24]: 70.7%
viability, T/C [25]: 79.8%
viability, T/C [26]: 76.3%
viability, T/C [27]: 76.2%
viability, T/C [28]: 72.2%
viability, T/C [29]: 68.9%
viability, T/C [30]: 55.1%
viability, T/C [31]: 76.4%
viability, T/C [32]: 74.4%
viability, T/C [33]: 73.9%
viability, T/C [34]: 74.1%
viability, T/C [35]: 75%
viability, T/C [36]: 55.4%

CC1COCCN1c1cc(-c2ccnn2C)c2ccnc(-c3ccn[nH]3)c2n1 (stereo unspecified) + Cc1[nH]c2ccc(F)cc2c1-c1nc2c3cccnc3c3ncccc3c2[nH]1
IC50 (second compound 0.0316 µM): 0.146 µM
IC50 (second compound 0.1 µM): 0.156 µM
IC50 (second compound 0.316 µM): 0.191 µM
IC50 (second compound 1 µM): 0.116 µM
IC50 (second compound 3.16 µM): 0.0704 µM
IC50 (second compound 10 µM): 0.0748 µM
viability, T/C [1]: 77.3%
viability, T/C [2]: 56.4%
viability, T/C [3]: 37.1%
viability, T/C [4]: 27.7%
viability, T/C [5]: 21.9%
viability, T/C [6]: 16.8%
viability, T/C [7]: 80.5%
viability, T/C [8]: 57.5%
viability, T/C [9]: 38.3%
viability, T/C [10]: 26.3%
viability, T/C [11]: 21.4%
viability, T/C [12]: 17%
viability, T/C [13]: 77.6%
viability, T/C [14]: 62.9%
viability, T/C [15]: 39%
viability, T/C [16]: 28.1%
viability, T/C [17]: 21.2%
viability, T/C [18]: 18.4%
viability, T/C [19]: 77.9%
viability, T/C [20]: 52.5%
viability, T/C [21]: 34.6%
viability, T/C [22]: 26.6%
viability, T/C [23]: 23%
viability, T/C [24]: 17.7%
viability, T/C [25]: 60.9%
viability, T/C [26]: 46.1%
viability, T/C [27]: 31.1%
viability, T/C [28]: 26.8%
viability, T/C [29]: 21.7%
viability, T/C [30]: 17.5%
viability, T/C [31]: 61%
viability, T/C [32]: 46.9%
viability, T/C [33]: 30.8%
viability, T/C [34]: 25.1%
viability, T/C [35]: 21.1%
viability, T/C [36]: 18.6%
